Experimental data taken from the supplement of paper PMC11451515.

Columns and labels:
Details in all cases: 48 h
[1] = test system: P12-Ichikawa; assay: cell viability relative to DMSO control; higher = less cytotoxic
Method in brief: (§1)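 In 1536-well plates, 5 μl of leukemia cells were seeded per well: 500 cells/well for NOMO1 or SEM and 1000 cells/well for P12-Ichikawa. Each line had first been adapted for at least four passages in each medium. Library compounds in DMSO were pin-dosed at 11 threefold concentrations between 47 μM and 0.79 nM, and CellTiter-Glo One luminescence was read after 48 h at 37°C. Viability is a per-plate percentage relative to DMSO wells, with cell-free wells as background.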

[2] = test system: NOMO1; assay: as above
Method in brief: as §1

[3] = test system: SEM cells; assay: as above
Method in brief: as §1

[4] = test system: P12-Ichikawa; assay: AUC of viability dose-response curve (% viability x log10 dose units); higher = less sensitive
Method in brief: (§2)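 Library compounds in DMSO were applied for 48 h at 37°C at 11 threefold doses (47 μM to 0.79 nM) to medium-adapted leukemia cells in 1536-well plates holding 500 or 1000 cells/well. Luminescence from CellTiter-Glo One was normalised plate by plate against DMSO and cell-free wells. Area under the curve came from trapezoidal integration of a log-logistic fit, after scaling curves that rose above full viability and discarding those that failed quality control. The fit had four parameters and used log10 doses.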

[5] = test system: NOMO1; assay: as above
Method in brief: as §2

[6] = test system: SEM cells; assay: as above
Method in brief: as §2

NC(=O)NO
cell viability [%]
Details	[1]	[2]	[3]
HPLM + 10% dialyzed FBS, 0.000781 µM	85.4	88.2	83
HPLM + 10% dialyzed FBS, 0.00234 µM	102	102	79.5
HPLM + 10% dialyzed FBS, 0.00702 µM	100	110	89.4
HPLM + 10% dialyzed FBS, 0.0211 µM	100	110	85.6
HPLM + 10% dialyzed FBS, 0.0632 µM	94.3	116	93.5
HPLM + 10% dialyzed FBS, 0.19 µM	99.6	100	96.1
HPLM + 10% dialyzed FBS, 0.569 µM	102	88.9	80.1
HPLM + 10% dialyzed FBS, 1.71 µM	104	84.9	75.2
HPLM + 10% dialyzed FBS, 5.12 µM	72.4	16.6	31.6
HPLM + 10% dialyzed FBS, 15.4 µM	28.8	3.7	13.8
HPLM + 10% dialyzed FBS, 46.1 µM	2.02	2.4	2.15
RPMI 5 mM glucose + 10% FBS, 0.000781 µM	83.7	83.9	99.3
RPMI 5 mM glucose + 10% FBS, 0.00234 µM	103	90.8	89.3
RPMI 5 mM glucose + 10% FBS, 0.00702 µM	91.4	85.6	96.1
RPMI 5 mM glucose + 10% FBS, 0.0211 µM	90.8	88.7	94.8
RPMI 5 mM glucose + 10% FBS, 0.0632 µM	98.7	86.1	100
RPMI 5 mM glucose + 10% FBS, 0.19 µM	98.5	90.2	93
RPMI 5 mM glucose + 10% FBS, 0.569 µM	91.2	90.8	103
RPMI 5 mM glucose + 10% FBS, 1.71 µM	90.9	94.6	86.1
RPMI 5 mM glucose + 10% FBS, 5.12 µM	77.1	37.3	37.2
RPMI 5 mM glucose + 10% FBS, 15.4 µM	43.6	10.4	7.56
RPMI 5 mM glucose + 10% FBS, 46.1 µM	0.136	1.27	1.61
RPMI 5 mM glucose + 10% dialyzed FBS, 0.000781 µM	88.4	81.9	77.9
RPMI 5 mM glucose + 10% dialyzed FBS, 0.00234 µM	88.3	90.4	79.6
RPMI 5 mM glucose + 10% dialyzed FBS, 0.00702 µM	87.7	92.6	93
RPMI 5 mM glucose + 10% dialyzed FBS, 0.0211 µM	91.4	95.3	88.4
RPMI 5 mM glucose + 10% dialyzed FBS, 0.0632 µM	92.2	98	96.2
RPMI 5 mM glucose + 10% dialyzed FBS, 0.19 µM	96	87.2	84.4
RPMI 5 mM glucose + 10% dialyzed FBS, 0.569 µM	94.1	91.1	95.5
RPMI 5 mM glucose + 10% dialyzed FBS, 1.71 µM	87.2	96	87
RPMI 5 mM glucose + 10% dialyzed FBS, 5.12 µM	65.2	33	32.3
RPMI 5 mM glucose + 10% dialyzed FBS, 15.4 µM	22.9	10	5.86
RPMI 5 mM glucose + 10% dialyzed FBS, 46.1 µM	2.61	1.29	1.96

AUC of viability dose-response curve
Details	[4]	[5]	[6]
HPLM + 10% dialyzed FBS	401	359	326
RPMI 5 mM glucose + 10% FBS	393	340	362
RPMI 5 mM glucose + 10% dialyzed FBS	367	347	332

CCOc1cc(CC(=O)N[C@@H](CC(C)C)c2ccccc2N2CCCCC2)ccc1C(=O)O
cell viability [%]
Details	[1]	[2]	[3]
HPLM + 10% dialyzed FBS, 0.000781 µM	113	117	83.9
HPLM + 10% dialyzed FBS, 0.00234 µM	124	120	104
HPLM + 10% dialyzed FBS, 0.00702 µM	116	139	121
HPLM + 10% dialyzed FBS, 0.0211 µM	129	138	106
HPLM + 10% dialyzed FBS, 0.0632 µM	130	141	116
HPLM + 10% dialyzed FBS, 0.19 µM	125	126	109
HPLM + 10% dialyzed FBS, 0.569 µM	129	46.7	122
HPLM + 10% dialyzed FBS, 1.71 µM	111	43.4	117
HPLM + 10% dialyzed FBS, 5.12 µM	12.2	37	132
HPLM + 10% dialyzed FBS, 15.4 µM	13.3	41.1	125
HPLM + 10% dialyzed FBS, 46.1 µM	13.4	34.7	119
RPMI 5 mM glucose + 10% FBS, 0.000781 µM	110	–	103
RPMI 5 mM glucose + 10% FBS, 0.00234 µM	130	–	110
RPMI 5 mM glucose + 10% FBS, 0.00702 µM	119	–	109
RPMI 5 mM glucose + 10% FBS, 0.0211 µM	137	–	109
RPMI 5 mM glucose + 10% FBS, 0.0632 µM	124	–	106
RPMI 5 mM glucose + 10% FBS, 0.19 µM	127	–	108
RPMI 5 mM glucose + 10% FBS, 0.569 µM	135	–	118
RPMI 5 mM glucose + 10% FBS, 1.71 µM	120	–	134
RPMI 5 mM glucose + 10% FBS, 5.12 µM	16.4	–	127
RPMI 5 mM glucose + 10% FBS, 15.4 µM	17.6	–	129
RPMI 5 mM glucose + 10% FBS, 46.1 µM	19.6	–	123
RPMI 5 mM glucose + 10% dialyzed FBS, 0.000781 µM	–	–	105
RPMI 5 mM glucose + 10% dialyzed FBS, 0.00234 µM	–	–	113
RPMI 5 mM glucose + 10% dialyzed FBS, 0.00702 µM	–	–	123
RPMI 5 mM glucose + 10% dialyzed FBS, 0.0211 µM	–	–	127
RPMI 5 mM glucose + 10% dialyzed FBS, 0.0632 µM	–	–	109
RPMI 5 mM glucose + 10% dialyzed FBS, 0.19 µM	–	–	114
RPMI 5 mM glucose + 10% dialyzed FBS, 0.569 µM	–	–	119
RPMI 5 mM glucose + 10% dialyzed FBS, 1.71 µM	–	–	137
RPMI 5 mM glucose + 10% dialyzed FBS, 5.12 µM	–	–	130
RPMI 5 mM glucose + 10% dialyzed FBS, 15.4 µM	–	–	128
RPMI 5 mM glucose + 10% dialyzed FBS, 46.1 µM	–	–	134

AUC of viability dose-response curve
Details	[4]	[5]	[6]
HPLM + 10% dialyzed FBS	365	327	459
RPMI 5 mM glucose + 10% FBS	373	310	432
RPMI 5 mM glucose + 10% dialyzed FBS	387	337	436
